The target of assay [1] is T1, ThnA4 (ThnA4-His6), NAD(P)H-dependent ferredoxin reductase of tetralin dioxygenase (Sphingopyxis macrogoltabida, UniProt Q8GJE9).
T1 construct: full length, 339 residues, C-terminal His6 (pET23b, plasmid pMPO784), E. coli NCM631 host; plant-type [2Fe-2S]; FAD-reconstituted
The assay can be described thus: UV-visible spectrum after FAD reconstitution. To be noted: 2 mM FAD added during cell disruption; FAD partly lost during purification. The class given is binding.

The target of assay [2] is T1, ThnA4 (ThnA4-His6), NAD(P)H-dependent ferredoxin reductase of tetralin dioxygenase. The assay can be described thus: stopped-flow pre-steady-state reduction of ThnA4ox, fit of kA→B. Particulars: oxidized enzyme, potassium phosphate 50 mM pH 7.4, NaCl 10 mM, glycerine 5%, 15 °C, hydride donor. The class given is biochemical.

One may read the Kd as the free concentration of one partner at which half of the binding sites on the other are occupied at equilibrium, for simple one-to-one binding.

Where two headings read alike, the source gives them in different places. Bounds are passed on as bounds.

T1 sequence (Q8GJE9 entry or part of it): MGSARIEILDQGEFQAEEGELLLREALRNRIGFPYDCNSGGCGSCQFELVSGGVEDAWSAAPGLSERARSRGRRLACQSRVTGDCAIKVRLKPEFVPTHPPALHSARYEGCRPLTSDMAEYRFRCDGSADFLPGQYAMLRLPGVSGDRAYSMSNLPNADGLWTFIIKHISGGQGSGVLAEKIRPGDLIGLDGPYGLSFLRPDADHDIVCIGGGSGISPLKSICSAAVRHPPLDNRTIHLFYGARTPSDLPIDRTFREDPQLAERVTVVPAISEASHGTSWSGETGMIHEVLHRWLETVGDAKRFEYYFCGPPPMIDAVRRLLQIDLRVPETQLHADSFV

For the compound `Cc1cc2nc3c(=O)[nH]c(=O)nc-3n(C[C@H](O)[C@H](O)[C@H](O)COP(=O)(O)OP(=O)(O)OC[C@H]3O[C@@H](n4cnc5c(N)ncnc54)[C@H](O)[C@@H]3O)c2cc1C` [FAD], the “UV-visible spectrum after FAD reconstitution” value in assay [1] is “reconstituted ThnA4-His6 contains the expected FAD and [2Fe-2S] redox centers”.
Consider `NC(=O)C1=CN([C@@H]2O[C@H](COP(=O)(O)OP(=O)(O)OC[C@H]3O[C@@H](n4cnc5c(N)ncnc54)[C@H](O)[C@@H]3O)[C@@H](O)[C@H]2O)C=CC1` [NADH], for which, in assay [2] (upper limit estimated from saturation profile, read-out: Kd^NADH), the Kd was less than 0.4 µM.
With `NC(=O)C1=CN([C@@H]2O[C@H](COP(=O)(O)OP(=O)(O)OC[C@H]3O[C@@H](n4cnc5c(N)ncnc54)[C@H](OP(=O)(O)O)[C@@H]3O)[C@@H](O)[C@H]2O)C=CC1` [NADPH], in assay [2] (read-out: Kd^NADPH), the Kd came out at 54 ± 13 µM.

(Values after article PMC4814904, “Redox proteins of hydroxylating bacterial dioxygenases establish a regulatory cascade that prevents gratuitous induction of tetralin biodegradation genes” (Scientific Reports, 2016).)
